PubChem BioAssay (NCI)
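In this assay, cells in 96-well plates receive the compound at five concentrations for 48 hours. Endpoints are linearly interpolated between the surrounding concentrations. TGI: total growth inhibition.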

What was measured:
Assay in all cases: NCI anticancer screen, dose series, 48 h
NCI-H226 lung = system: NCI-H226 lung
T-47D breast = system: T-47D breast
SK-OV-3 ovarian = system: SK-OV-3 ovarian
SK-MEL-5 melanoma = system: SK-MEL-5 melanoma
HCT-15 colon = system: HCT-15 colon
HCT-116 colon = system: HCT-116 colon
NCI/ADR-RES ovarian = system: NCI/ADR-RES ovarian
HCC-2998 colon = system: HCC-2998 colon
A498 renal = system: A498 renal
DU-145 prostate = system: DU-145 prostate

Structure (SMILES) | TGI (NCI-H226 lung) [µM] | TGI (T-47D breast) [µM] | TGI (SK-OV-3 ovarian) [µM] | TGI (SK-MEL-5 melanoma) [µM] | TGI (HCT-15 colon) [µM] | TGI (HCT-116 colon) [µM] | TGI (NCI/ADR-RES ovarian) [µM] | TGI (HCC-2998 colon) [µM] | TGI (A498 renal) [µM] | TGI (DU-145 prostate) [µM]
C[C@H]1[C@H](C)N(Cc2ccccc2)P(=O)(C(O)/C=C/c2ccccc2)N1Cc1ccccc1 (stereo partly specified) | 16.9 | 22.9 | > 25 | 8.7 | > 25 | 11.6 | > 25 | 15.5 | 10.3 | 
c1ccc(Nc2nnc(CSc3nc(-c4ccccc4)c(-c4ccccc4)[nH]3)s2)cc1 | 33 |  | 56 | 28.5 | 49.9 | 35.7 |  |  | 49.1 | 
O=S(=O)([O-])[O-].[Fe+2].c1ccc(/C(=N\Nc2ccccn2)c2ccccn2)cc1 | 4.37 |  | 4.25 | 4.43 | 11.3 | 4.56 |  | 16.2 | 24.2 | 
CCOC(=O)c1nc2ccc(C(F)(F)F)cc2nc1NCc1ccc(Cl)c(Cl)c1 | > 100 | > 100 | > 100 | > 100 | > 100 | > 100 | > 100 |  | 92.1 | 
NC(=O)OCC(COc1ccc(Cl)cc1)OC(=O)c1ccccc1Cl (stereo unspecified) | 60.2 |  | > 100 | 33.1 | 30 | 30.7 |  | 43.5 | > 100 | 
NCC1(N2CCOCC2)C2CCCC21CO (stereo unspecified) | > 100 |  | > 100 | > 100 | > 100 | > 100 |  | > 100 |  | 
CC(C)=CCCC1(C)C=Cc2c(c(C)cc3c2[nH]c2cc(O)ccc23)O1 (stereo unspecified) | > 25 |  | > 25 | > 25 | > 25 | > 25 |  | > 25 |  | 
CC1CC2OC(=O)C3CC(O)CC(=C23)[C@@]12C[C@@H](c1ccoc1)OC2=O (stereo partly specified) | > 100 |  | > 100 | > 100 | > 100 | > 100 |  | > 100 |  | 
COc1cc(/C=C\c2ccccn2)cc(OC)c1OC | > 100 |  |  | > 100 | > 100 | > 100 |  |  | > 100 | 
Cc1nc2sc(CCl)nn2c(=O)c1Cl | 31.8 | 28.3 | 28.1 | 18.7 | 23.8 | 26.2 | 50.8 | 37.7 |  | 29.7
CC(C)c1ccccc1SC1CC(=O)CC(Sc2ccccc2C(C)C)C12O[C@H](c1ccccc1)[C@@H](c1ccccc1)O2 (stereo partly specified) |  | 82.9 | > 100 | > 100 | > 100 | > 100 | > 100 | > 100 | > 100 | > 100
C=C1C(=O)C([Si](C)(C)C)=C2C=C(C)C3(CC3)C12C (stereo unspecified) | > 100 | > 100 |  | > 100 | > 100 | > 100 | 44.2 | 70.2 | > 100 | > 100
CSc1nc2ccccc2c(=O)n1/N=C1\C(=O)N(CN2CCCCC2)c2ccc(Cl)cc21 | > 100 | 54.8 | 94.7 | > 100 | > 100 | > 100 | > 100 |  | 96.6 | 42.7
CC#COP(=O)(OCC)OCC | > 100 |  | > 100 | > 100 | > 100 | > 100 |  | > 100 | > 100 | 
O=c1c2cc(S(=O)(=O)Nc3ccccc3Cl)ccc2ncn1NS(=O)(=O)c1ccc(Br)cc1 | > 37.5 |  | > 37.5 |  | > 37.5 | > 37.5 | > 37.5 | > 37.5 |  | > 37.5
CCOC(C[C@H](O)[C@H]1COC(=S)S1)OCC | > 100 |  |  | > 100 | > 100 | > 100 |  | > 100 |  | 
O=C1C/C(=C/c2ccc(/C=C3/CC(=O)N(c4cccc(Br)c4)C3=O)cc2)C(=O)N1c1cccc(Br)c1 | > 100 |  | > 100 | > 100 | > 100 | > 100 |  | > 100 | > 100 | 
COc1cc(NC(C)=O)c2[nH]c3c(C)cc(NC(C)=O)c(C)c3c2c1 | > 100 |  | > 100 | > 100 | > 100 | > 100 |  | > 100 | > 100 | 
CC(C)OP(=O)(OC(C)C)C(C(C)C)N(C)/C(N)=N\C1=NC(C(F)(F)F)(C(F)(F)F)N=C(C(C(F)(F)F)C(F)(F)F)O1 (stereo unspecified) | 5.05 | 31.3 | 19.8 |  |  | 6.6 |  | 19.5 | 23.5 | 25.6
Oc1ccccc1/C=N/Nc1nnc2c3ccccc3c3ccccc3c2n1 | > 100 | > 100 | > 100 | > 100 | > 100 | > 100 | > 100 |  | > 100 | > 100
CCOC(=O)NC(C(F)(F)F)(C(F)(F)F)P(=O)(OC(C)C)OC(C)C | > 100 |  | > 100 | > 100 | > 100 | > 100 | > 100 | > 100 |  | > 100
CCOC(=O)/C(N=Nc1ccc(-n2c(C)nc3ccccc3c2=O)cc1)=C(/C)O | 80.1 | 92.3 | > 100 | 16 | > 100 | > 100 | 51.8 |  | > 100 | > 100
COc1ccccc1C1CC(=O)CC(c2ccccc2OC)C12C(=O)NC(=S)NC2=O (stereo unspecified) | > 100 | > 100 |  | > 100 | > 100 | > 100 | > 100 | > 100 |  | > 100
COc1ccc(OC)c2sc(N3C(=O)/C(=C/Cc4ccco4)N=C3c3ccccc3)nc12 |  | 79.8 | > 100 | 80.5 | > 100 | 98.9 | > 100 | > 100 | > 100 | > 100
CC1C2CC(CC(=O)N2)C1(C)C (stereo unspecified) | > 100 | > 100 | > 100 | > 100 |  | > 100 |  | > 100 | > 100 | > 100
COc1cc(OCc2ccc3nc(-c4ccccc4)c(N)nc3c2)cc(OC)c1OC | 50.4 | 42.5 |  | 24 | 39.7 | 21.1 | 49.6 | > 100 | 73.8 | 77.8
